Data on 11 molecules can be found in ChEMBL document CHEMBL4699602, “Stapled and Xenopus Glucagon-Like Peptide 1 (GLP-1)-Based Dual GLP-1/Gastrin Receptor Agonists with Improved Metabolic Benefits in Rodent Models of Obesity and Diabetes” (J Med Chem, 2020).

For orientation: pEC50 means the EC50 on a negative log10 scale, so that one unit is a factor of ten.

pEC50: −log10 of the molar value. The source made the active and inactive calls. No cut-off for these calls is given here. *1 amine or outer side, *2 acyl side, *3 side chain or, on linkers, in order; H or OH if unused. Where a SMILES comes first, the peptide text is derived from it. Bridges are numbered along the chain shown (N, C = ends). [ ]: non-standard residue; d: D form. X4 = O=C(O)CCCCCCCCCCCCCCCCC(=O)NC(CCC(=O)NCCOCCOCC(=O)NCCOCCOCC(=O)NCCCCCCNC(=O)C(CCCCNC(=O)CCN1C(=O)CC([*:1])C1=O)NC(=O)CCN1C(=O)CC([*:2])C1=O)C(=O)O; X2 = O=C(O)CCCCCCCCCCCCCCCCC(=O)NC(CCC(=O)NCCOCCOCC(=O)NCCCCCCNC(=O)C(CCCCNC(=O)CCN1C(=O)CC([*:2])C1=O)NC(=O)CCN1C(=O)CC([*:1])C1=O)C(=O)O; X3 = O=C(O)CCCCCCCCCCCCCCCCC(=O)NC(CCC(=O)NCCOCCOCC(=O)NCCCCCCNC(=O)C(CCCCNC(=O)CCN1C(=O)CC([*:1])C1=O)NC(=O)CCN1C(=O)CC([*:2])C1=O)C(=O)O; X7 = O=C(O)CCCCCCCCCCCCCCCCC(=O)NCCOCCOCC(=O)NCCCCCCNC(=O)C(CCCCNC(=O)CCN1C(=O)CC([*:1])C1=O)NC(=O)CCN1C(=O)CC([*:2])C1=O; X8 = O=C(O)CCCCCCCCCCCCCCCCC(=O)NCCOCCOCC(=O)NCCCCCCNC(=O)C(CCCCNC(=O)CCN1C(=O)CC([*:2])C1=O)NC(=O)CCN1C(=O)CC([*:1])C1=O; X1 = CCCCCCCCCCCCCCCC(=O)NCCCCCCNC(=O)C(CCCCNC(=O)CCN1C(=O)CC([*:1])C1=O)NC(=O)CCN1C(=O)CC([*:2])C1=O; X6 = CCCCCCCCCCCCCCCC(=O)NCCCCCCNC(=O)C(CCCCNC(=O)CCN1C(=O)CC([*:2])C1=O)NC(=O)CCN1C(=O)CC([*:1])C1=O; Aib = CC(C)(N)C(=O)O

The test system of one experiment is Mus musculus. The experiment in a line: Hypoglycemic activity in ICR mouse assessed as decrease in blood glucose concentration at 25 nmol/kg, ip dosed 15 mins before test and measured up to 120 mins by OGTT method. Type of experiment: functional, organism-based.
Experiment [1] addresses T1, Glucagon-like peptide 1 receptor (Homo sapiens, UniProt P43220). The experiment in a line: Agonist activity at human GLP-1R expressed in HEK293 cells assessed as stimulation of cAMP accumulation incubated for 20 mins. In kind it is functional, cell-based.
Experiment [2] deals with T1, Glucagon-like peptide 1 receptor. The experiment can be described thus: Ratio of EC50 for agonist activity at human GLP-1R expressed in HEK293 cells in presence of 4.4% HSA to EC50 for agonist activity at human GLP-1R expressed in HEK293 cells in presence of 0% HSA. In kind it is cell-based.
Experiment [3] shares this target. The experiment can be described thus: Agonist activity at human GLP-1R expressed in HEK293 cells assessed as stimulation of cAMP accumulation incubated for 20 mins in presence of 4.4% HSA. In kind it is functional, cell-based. For orientation: Cyclic AMP is a second messenger, typically raised through Gs and lowered through Gi signalling.
Experiment [4] has the same target. The experiment can be described thus: Agonist activity at human GLP-1R expressed in HEK293 cells assessed as stimulation of cAMP accumulation incubated for 20 mins in presence of 0% HSA. Type of experiment: functional, cell-based.

T1 sequence (P43220 whole entry): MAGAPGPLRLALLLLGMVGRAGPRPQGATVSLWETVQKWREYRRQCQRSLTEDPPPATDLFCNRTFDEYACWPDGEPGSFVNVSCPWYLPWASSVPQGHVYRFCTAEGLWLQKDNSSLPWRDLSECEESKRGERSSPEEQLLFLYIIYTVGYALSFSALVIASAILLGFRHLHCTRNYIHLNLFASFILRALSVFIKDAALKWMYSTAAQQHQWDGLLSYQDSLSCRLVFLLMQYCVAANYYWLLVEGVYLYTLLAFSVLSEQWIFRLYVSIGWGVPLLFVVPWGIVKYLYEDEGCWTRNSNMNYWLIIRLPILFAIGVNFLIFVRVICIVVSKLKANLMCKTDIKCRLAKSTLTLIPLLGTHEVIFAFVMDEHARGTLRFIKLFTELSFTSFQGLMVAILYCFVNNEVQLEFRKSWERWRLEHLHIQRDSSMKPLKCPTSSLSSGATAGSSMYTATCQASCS

Regarding `CC[C@H](C)[C@H](NC(=O)[C@H](Cc1ccccc1)NC(=O)[C@H](CCC(=O)O)NC(=O)[C@H](CCCCN)NC(=O)[C@H](C)NC(=O)[C@H](C)NC(=O)[C@H](CCC(N)=O)NC(=O)CNC(=O)[C@H](CCC(=O)O)NC(=O)[C@H](CC(C)C)NC(=O)[C@H](Cc1ccc(O)cc1)NC(=O)[C@H](CO)NC(=O)[C@H](CO)NC(=O)[C@@H](NC(=O)[C@H](CC(=O)O)NC(=O)[C@H](CO)NC(=O)[C@@H](NC(=O)[C@H](Cc1ccccc1)NC(=O)[C@@H](NC(=O)CNC(=O)[C@H](CCC(=O)O)NC(=O)[C@H](C)NC(=O)[C@@H](N)Cc1cnc[nH]1)[C@@H](C)O)[C@@H](C)O)C(C)C)C(=O)N[C@@H](C)C(=O)N[C@@H](Cc1c[nH]c2ccccc12)C(=O)N[C@@H](CC(C)C)C(=O)N[C@H](C(=O)N[C@@H](CCCCN)C(=O)NCC(=O)N[C@@H](CCCNC(=N)N)C(=O)O)C(C)C`, in the experiment on Mus musculus, the result was Active.

On to `CC[C@H](C)[C@H](NC(=O)[C@H](CC(C)C)NC(=O)[C@H](Cc1c[nH]c2ccccc12)NC(=O)[C@H](CCC(=O)O)NC(=O)[C@@H](NC(=O)[C@H](Cc1ccccc1)NC(=O)[C@H](CS)NC(=O)[C@H](CCCCN)NC(=O)[C@H](C)NC(=O)[C@H](C)NC(=O)[C@H](CCC(=O)O)NC(=O)[C@H](CCC(=O)O)NC(=O)[C@H](CCC(=O)O)NC(=O)[C@H](CS)NC(=O)[C@H](Cc1ccc(O)cc1)NC(=O)[C@H](CCC(=O)O)NC(=O)[C@@H](NC(=O)[C@@H](NC(=O)[C@H](CC(=O)O)NC(=O)[C@H](CC(N)=O)NC(=O)[C@@H](NC(=O)[C@H](Cc1ccc(O)cc1)NC(=O)[C@@H](NC(=O)CNC(=O)[C@H](CCC(=O)O)NC(=O)C(C)(C)NC(=O)[C@@H](N)Cc1c[nH]cn1)[C@@H](C)O)[C@@H](C)O)C(C)C)[C@@H](C)O)[C@@H](C)CC)C(=O)N[C@@H](CCCCN)C(=O)NCC(=O)N[C@@H](CCCCN)C(=O)N1CCC[C@H]1C(=O)N[C@@H](CO)C(=O)N[C@@H](CO)C(=O)NCC(=O)N[C@@H](C)C(=O)N1CCC[C@H]1C(=O)N1CCC[C@H]1C(=O)N1CCC[C@H]1C(=O)N[C@@H](CO)C(N)=O` (HELM PEPTIDE1{H.[Aib].E.G.T.Y.T.N.D.V.T.E.Y.C.E.E.E.A.A.K.C.F.I.E.W.L.I.K.G.K.P.S.S.G.A.P.P.P.S.[am]}$$$$V2.0), for which, in the experiment with Mus musculus, the outcome was Active. The pEC50 in experiment [1] was 10.38.

For the molecule `CC[C@H](C)[C@H](NC(=O)[C@H](CC(C)C)NC(=O)[C@H](Cc1c[nH]c2ccccc12)NC(=O)[C@H](CCC(=O)O)NC(=O)[C@@H](NC(=O)[C@H](Cc1ccccc1)NC(=O)[C@H](CS)NC(=O)[C@H](CCCCN)NC(=O)[C@H](C)NC(=O)[C@H](C)NC(=O)[C@H](CCC(=O)O)NC(=O)[C@H](CCC(=O)O)NC(=O)[C@H](CCC(=O)O)NC(=O)[C@H](CS)NC(=O)[C@H](Cc1ccc(O)cc1)NC(=O)[C@H](CCC(=O)O)NC(=O)[C@@H](NC(=O)[C@@H](NC(=O)[C@H](CC(=O)O)NC(=O)[C@H](CC(N)=O)NC(=O)[C@@H](NC(=O)[C@H](Cc1ccc(O)cc1)NC(=O)[C@@H](NC(=O)CNC(=O)[C@H](CCC(=O)O)NC(=O)C(C)(C)NC(=O)[C@@H](N)Cc1c[nH]cn1)[C@@H](C)O)[C@@H](C)O)C(C)C)[C@@H](C)O)[C@@H](C)CC)C(=O)N[C@@H](CCCCN)C(=O)NCC(=O)N[C@@H](CCCCN)C(N)=O` (HELM PEPTIDE1{H.[Aib].E.G.T.Y.T.N.D.V.T.E.Y.C.E.E.E.A.A.K.C.F.I.E.W.L.I.K.G.K.[am]}$$$$V2.0), in the experiment on Mus musculus, the outcome was Active. Further, the pEC50 in experiment [1] is 10.18.

With `CC[C@H](C)[C@@H]1NC(=O)[C@H](CC(C)C)NC(=O)[C@H](Cc2c[nH]c3ccccc23)NC(=O)[C@H](CCC(=O)O)NC(=O)[C@H]([C@@H](C)CC)NC(=O)[C@H](Cc2ccccc2)NC(=O)[C@@H](NC(=O)[C@H](CCCCN)NC(=O)[C@H](C)NC(=O)[C@H](C)NC(=O)[C@H](CCC(=O)O)NC(=O)[C@H](CCC(=O)O)NC(=O)[C@H](CCC(=O)O)NC(=O)[C@H](CC(C)C)NC(=O)[C@H](Cc2ccc(O)cc2)NC(=O)[C@H](CCC(=O)O)NC(=O)[C@@H](NC(=O)[C@@H](NC(=O)[C@H](CC(=O)O)NC(=O)[C@H](CC(N)=O)NC(=O)[C@@H](NC(=O)[C@H](Cc2ccc(O)cc2)NC(=O)[C@@H](NC(=O)CNC(=O)[C@H](CCC(=O)O)NC(=O)C(C)(C)NC(=O)[C@@H](N)Cc2c[nH]cn2)[C@@H](C)O)[C@@H](C)O)C(C)C)[C@@H](C)O)CSC2CC(=O)N(CCC(=O)NC(C(=O)NCCCCCCNC(=O)COCCOCCNC(=O)CCCCCCCCCCCCCCCCC(=O)O)CCCCNC(=O)CCN3C(=O)CC(SC[C@@H](C(=O)NCC(=O)N[C@@H](CCCCN)C(N)=O)NC1=O)C3=O)C2=O` (some centres undefined) (HELM PEPTIDE1{H.[Aib].E.G.T.Y.T.N.D.V.T.E.Y.L.E.E.E.A.A.K.C.F.I.E.W.L.I.C.G.K.[am]}|CHEM1{[O=C(O)CCCCCCCCCCCCCCCCC(=O)NCCOCCOCC(=O)NCCCCCCNC(=O)C(CCCCNC(=O)CCN1C(=O)CC([*:2])C1=O)NC(=O)CCN1C(=O)CC([*:1])C1=O]}$PEPTIDE1,CHEM1,21:R3-1:R1|PEPTIDE1,CHEM1,28:R3-1:R2$$$V2.0), the Ratio EC50 in experiment [2] amounted to 13.7. Also, the values for the pEC50 in experiment [3] and in experiment [4] were 8.59 and 9.72, respectively.

Turning to “H-H[Aib]EGTYTNDVTEYCEEEAAKCFIEWLIKGKPSSGAPPSKKKKKK-NH2 (linker 14-21 via X1)”, the Ratio EC50 in experiment [2] was 15.1. Further, the pEC50 was 8.85 in experiment [3] and 10.03 in experiment [4].

For the molecule “H-H[Aib]EGTYTNDVTEYCEEEAAKCFIEWLIKGKPSSGAPPSKKKKKK-NH2 (linker 14-21 via X3)”, in experiment [2], the Ratio EC50 was 40.6. Further, the pEC50 is 8.19 in experiment [3] and 9.80 in experiment [4].

Turning to “H-H[Aib]EGTYTNDVTEYCEEEAAKCFIEWLIKGKPSSGAPPSKKKKKK-NH2 (linker 14-21 via X4)”, the Ratio EC50 in experiment [2] was 84.7. Moreover, the results for the negative logarithm of the EC50 (pEC50) in experiment [3] and in experiment [4] were 7.90 and 9.82, respectively.

As for “H-H[Aib]EGTYTNDVTEYCEEEAAKCFIEWLIKGKPSSGAPPSKKKKKK-NH2 (linker 14-21 via X7)”, the Ratio EC50 in experiment [2] worked out at 14. Also, the pEC50 in experiment [3] was 8.85; in experiment [4], 10.00.

As to “H-H[Aib]EGTYTNDVTEYLEEEAAKCFIEWLICGKPSSGAPPSKKKKKK-NH2 (linker 21-28 via X2)”, the Ratio EC50 in experiment [2] worked out at 38.3. For the same molecule, the pEC50 in experiment [3] was 8.16; in experiment [4], 9.74.

Consider “H-H[Aib]EGTYTNDVTEYLEEEAAKCFIEWLICGKPSSGAPPSKKKKKK-NH2 (linker 21-28 via X6)”, for which the Ratio EC50 in experiment [2] was determined as 13.6. For the same molecule, the results for the pEC50 in experiment [3] and in experiment [4] were 8.72 and 9.85, respectively.

For the molecule “H-H[Aib]EGTYTNDVTEYLEEEAAKCFIEWLICGKPSSGAPPSKKKKKK-NH2 (linker 21-28 via X8)”, the Ratio EC50 in experiment [2] came out at 12.5. Moreover, the figures for the pEC50 in experiment [3] and in experiment [4] were 8.82 and 9.92, respectively.
